# “Also recorded” adds a separate entry of the source.
# Experiments:
# [1] = system: HDAC3; test: HDAC isoform protein levels, Western blot, RA-FLS; assay type: cell-based; conditions: 12 or 24 h; 1 μM MPT0G009 or 30 μM SAHA
# Protocol: Then cells were harvested and cell lysates were prepared for Western blot analysis of the indicated proteins. (FIG. 5C) RA-FLS were incubated for 1 h with or without the proteasome inhibitor, MG132 (1 μM). […] Results shown are representative of three independent experiments.
# [2] = system: adjuvant-induced arthritis; test: adjuvant-induced arthritis (AIA) model; conditions: MPT0G009 25 mg/kg
# Protocol: (FIG. 8B) Hind paw volumes in the indicated group of rats were measured using a digital plethysmometer on the indicated day after AIA induction. […] (FIG. 8D) Serum levels of interleukin (IL)-1β (left panel) and IL-6 (right panel) on day 21 as measured by enzyme-linked immunosorbent assay (ELISA). […] (FIG. 8F) The bone mineral density (BMD, in mg/mm^3) and the bone mineral content (BMC, in mg) values for the bone tissue of the tarsus were analyzed using CT Analysis Software.
# [3] = day 21, ELISA, SAHA 200 mg/kg, indomethacin 1 mg/kg
# [4] = oral daily days 2 to 21, SAHA 200 mg/kg, indomethacin 1 mg/kg, vs vehicle
structure (smiles),measurement,setting,value
"COc1ccc(S(=O)(=O)N2CCc3cc(C=CC(=O)NO)ccc32)cc1 [Compound 9, 3-[1-(4-methoxybenzenesulfonyl)-2,3-dihydro-1H-indol-5-yl]-N-Hydroxyacrylamide]",levels of HDAC3 in RA-FLS,[1],decreased levels of HDAC3
same,bone destruction (micro-computed tomography),[2],ameliorated
same,bone mineral density (BMD) and bone mineral content (BMC),[2],prevented the decrease
same,cartilage degradation (safranin O staining of ankle joints),[2],markedly reduced
same,decrease of osteoblasts,[2],apparently ameliorated
same,formation of osteoclasts (TRAP stain),[2],significantly decreased
same,"leukocyte infiltration, synovitis (hematoxylin and eosin staining)",[2],significantly reduced
same,levels of acetyl-histone H3 (immunohistochemical staining),[2],increased levels
same,"synoviocytes proliferation and inflammation (KI-67, COX-2 staining)",[2]; 25 mg/kg,inhibition; also recorded: suppresses
same,serum levels of IL-1β,[2]; [3],significant decreases
same,serum levels of IL-6,[2]; [3],significant decreases
same,arthritis scores,"[2]; day 21, SAHA 200 mg/kg, indomethacin 1 mg/kg, vs vehicle",significant reductions
same,paw swelling,[2]; [4],significant reductions
same,paw volume,[2]; [4],significant reductions
